In assay [1] the target is T1, soluble MeV F (Measles virus, UniProt Q786F3).
T1 construct: produced in a soluble form, with the ablation of the intracytoplasmic and transmembrane domains; Tobacco Etch Virus protease site (C); foldomer (trimerization) domain (C); 6xHis (C); made in house; host or cells: 293T (culture supernatant)
The assay is classed as biochemical. The settings on record: peptide in culture medium, supernatant 24 hours post transfection.

In assay [2] the test system is soluble MeV F. The assay is classed as biochemical, measles virus.
The target of assay [3] is viral glycoproteins (H and F); CD150. As to the kind of experiment: beta-galactosidase complementation-based fusion assay, CD150 target cells.
Assay [4] addresses viral glycoproteins (H and F); Nectin-4 (Measles virus, UniProt Q786F3). Nature of the assay: beta-galactosidase complementation-based fusion assay, Nectin-4 target cells.

Entries after “also recorded” stand apart in the source; their conditions may differ. Where two headings read alike, the source gives them in different places.

Sequence of viral glycoproteins (H and F); Nectin-4 (Q786F3 24-112): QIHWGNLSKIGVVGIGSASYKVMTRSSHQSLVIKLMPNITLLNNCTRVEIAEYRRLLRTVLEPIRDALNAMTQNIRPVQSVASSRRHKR
Sequence of viral glycoproteins (H and F); CD150 (Q786F3 24-112): as above
Sequence of viral glycoproteins (H and F); CD150 (Q786F3 113-550): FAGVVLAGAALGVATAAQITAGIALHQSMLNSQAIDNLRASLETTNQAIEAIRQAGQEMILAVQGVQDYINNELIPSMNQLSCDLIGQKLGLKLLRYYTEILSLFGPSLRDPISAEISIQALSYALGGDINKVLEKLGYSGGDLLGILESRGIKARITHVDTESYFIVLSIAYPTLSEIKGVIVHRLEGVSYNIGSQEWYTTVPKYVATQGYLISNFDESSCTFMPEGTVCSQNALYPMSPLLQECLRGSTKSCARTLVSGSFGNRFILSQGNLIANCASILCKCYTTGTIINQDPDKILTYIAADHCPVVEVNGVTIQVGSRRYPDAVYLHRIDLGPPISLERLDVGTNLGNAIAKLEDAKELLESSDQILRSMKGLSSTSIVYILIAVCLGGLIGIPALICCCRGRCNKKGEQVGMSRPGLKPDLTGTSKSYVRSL
T1 sequence (Q786F3 113-494, added parts left off): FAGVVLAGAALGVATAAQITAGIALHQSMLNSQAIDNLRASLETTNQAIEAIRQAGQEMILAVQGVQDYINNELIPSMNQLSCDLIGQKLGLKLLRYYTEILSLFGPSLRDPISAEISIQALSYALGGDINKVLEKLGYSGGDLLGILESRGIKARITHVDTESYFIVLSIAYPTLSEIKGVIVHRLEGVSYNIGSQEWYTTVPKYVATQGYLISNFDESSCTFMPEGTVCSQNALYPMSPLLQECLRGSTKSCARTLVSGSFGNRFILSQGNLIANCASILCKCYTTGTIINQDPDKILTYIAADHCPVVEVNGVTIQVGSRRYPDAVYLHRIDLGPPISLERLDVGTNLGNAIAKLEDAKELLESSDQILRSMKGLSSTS
T1 sequence (Q786F3 24-112): as the sequence (Q786F3 24-112) above

Turning to `CC[C@H](C)[C@H](NC(=O)[C@H](C)NC(=O)[C@H](CC(N)=O)NC(=O)CNC(=O)[C@H](CC(C)C)NC(=O)[C@H](CC(N)=O)NC(=O)[C@@H](NC(=O)CNC(=O)[C@@H](NC(=O)[C@H](CC(=O)O)NC(=O)[C@H](CC(C)C)NC(=O)[C@H](CCCNC(=N)N)NC(=O)[C@H](CCC(=O)O)NC(=O)[C@H](CC(C)C)NC(=O)[C@H](CO)NC(=O)[C@@H](NC(=O)[C@@H]1CCCN1C(=O)[C@@H]1CCCN1C(=O)CNC(=O)[C@H](CO)NC(=O)CNC(=O)[C@H](CO)NC(=O)CNC(=O)CNC(=O)[C@H](Cc1ccccc1)NC(=O)[C@@H](Cc1ccccc1)NC(=O)OCc1ccccc1)[C@@H](C)CC)C(C)C)[C@@H](C)O)C(=O)N[C@@H](C)C(=O)N[C@@H](CCCCN)C(=O)N[C@@H](CC(C)C)C(=O)N[C@@H](CCC(=O)O)C(=O)N[C@@H](CC(=O)O)C(=O)N[C@@H](C)C(=O)N[C@@H](CCCCN)C(=O)N[C@@H](CCC(=O)O)C(=O)N[C@@H](CC(C)C)C(=O)N[C@@H](CC(C)C)C(=O)N[C@@H](CCC(=O)O)C(=O)N[C@@H](CO)C(=O)N[C@@H](CO)C(=O)N[C@@H](CC(=O)O)C(=O)N[C@@H](CCC(N)=O)C(=O)N[C@H](C(=O)N[C@@H](CC(C)C)C(=O)N[C@@H](CCCNC(=N)N)C(=O)NCC(=O)N[C@@H](CO)C(=O)NCC(=O)N[C@@H](CO)C(=O)NCC(=O)N[C@@H](CSC1CC(=O)N(CCC(=O)NCCOCCOCCOCCOCCOCCOCCOCCOCCOCCOCCOCCNC(=O)CCN2C(=O)CC(SC[C@H](NC(=O)CNC(=O)[C@H](CO)NC(=O)CNC(=O)[C@H](CO)NC(=O)CNC(=O)[C@H](CCCNC(=N)N)NC(=O)[C@H](CC(C)C)NC(=O)[C@@H](NC(=O)[C@H](CCC(N)=O)NC(=O)[C@H](CC(=O)O)NC(=O)[C@H](CO)NC(=O)[C@H](CO)NC(=O)[C@H](CCC(=O)O)NC(=O)[C@H](CC(C)C)NC(=O)[C@H](CC(C)C)NC(=O)[C@H](CCC(=O)O)NC(=O)[C@H](CCCCN)NC(=O)[C@H](C)NC(=O)[C@H](CC(=O)O)NC(=O)[C@H](CCC(=O)O)NC(=O)[C@H](CC(C)C)NC(=O)[C@H](CCCCN)NC(=O)[C@H](C)NC(=O)[C@@H](NC(=O)[C@H](C)NC(=O)[C@H](CC(N)=O)NC(=O)CNC(=O)[C@H](CC(C)C)NC(=O)[C@H](CC(N)=O)NC(=O)[C@@H](NC(=O)CNC(=O)[C@@H](NC(=O)[C@H](CC(=O)O)NC(=O)[C@H](CC(C)C)NC(=O)[C@H](CCCNC(=N)N)NC(=O)[C@H](CCC(=O)O)NC(=O)[C@H](CC(C)C)NC(=O)[C@H](CO)NC(=O)[C@@H](NC(=O)[C@@H]3CCCN3C(=O)[C@@H]3CCCN3C(=O)CNC(=O)[C@H](CO)NC(=O)CNC(=O)[C@H](CO)NC(=O)CNC(=O)CNC(=O)[C@H](Cc3ccccc3)NC(=O)[C@@H](Cc3ccccc3)NC(=O)OCc3ccccc3)[C@@H](C)CC)C(C)C)[C@@H](C)O)[C@@H](C)CC)[C@@H](C)CC)C(=O)O)C2=O)C1=O)C(=O)O)[C@@H](C)CC` (stereo partly drawn) [[FIP-HRC450-485]2-peg11], the results for the “stabilization of wt soluble F in pre-fusion state” value on soluble MeV F [1] and at soluble MeV F [1] (listed as FIP-HRC-PEG11-dimer) were “stabilize the wt soluble F” and “wt F protein remains in its pre-fusion state”, respectively. Further, the “stabilization of soluble F by FIP-HRC (dimer without cholesterol), FIGS. 117A-E” value with soluble MeV F [2] (55° C., 1 mM peptide, compared with FIP commercial, FIP dimer, 3 g) is “remains in its pre-fusion state incubation at 55 °C for up to two hours; also recorded: wt F is partially stabilized; also recorded: superior to commercially available stabilizer like the commercial FIP and 3 g”. In addition, the “stabilization of soluble F proteins on heating” value in the assay on soluble MeV F [2] (wt, E455G, E170G E455G soluble F, 45° C. or 55° C. for 30', 1 uM peptide) was “stabilize all the soluble F protein at both 45 °C and 55 °C”. Besides, the IC50 in assay [3] turned out to be 278 ± 229 nM; in assay [4] it was 528 ± 635 nM. Moreover, the values for the IC90 in assay [3] (read-out: CD150 IC90), in assay [4] and in assay [4] (read-out: Nectin4 IC90) were 916 ± 162 nM, 1180 ± 979 nM and 1180 ± 979 nM, respectively.

The values above are taken from US20230014151A1, “COMBINATION ANTIVIRAL THERAPY FOR MEASLES” (The Trustees of Columbia University in the City of New York, priority 2019, published 2023).
